In test [1] the target is T1, Polyamine deacetylase HDAC10 (Homo sapiens, UniProt Q969S8).
T1 sequence (Q969S8 whole entry): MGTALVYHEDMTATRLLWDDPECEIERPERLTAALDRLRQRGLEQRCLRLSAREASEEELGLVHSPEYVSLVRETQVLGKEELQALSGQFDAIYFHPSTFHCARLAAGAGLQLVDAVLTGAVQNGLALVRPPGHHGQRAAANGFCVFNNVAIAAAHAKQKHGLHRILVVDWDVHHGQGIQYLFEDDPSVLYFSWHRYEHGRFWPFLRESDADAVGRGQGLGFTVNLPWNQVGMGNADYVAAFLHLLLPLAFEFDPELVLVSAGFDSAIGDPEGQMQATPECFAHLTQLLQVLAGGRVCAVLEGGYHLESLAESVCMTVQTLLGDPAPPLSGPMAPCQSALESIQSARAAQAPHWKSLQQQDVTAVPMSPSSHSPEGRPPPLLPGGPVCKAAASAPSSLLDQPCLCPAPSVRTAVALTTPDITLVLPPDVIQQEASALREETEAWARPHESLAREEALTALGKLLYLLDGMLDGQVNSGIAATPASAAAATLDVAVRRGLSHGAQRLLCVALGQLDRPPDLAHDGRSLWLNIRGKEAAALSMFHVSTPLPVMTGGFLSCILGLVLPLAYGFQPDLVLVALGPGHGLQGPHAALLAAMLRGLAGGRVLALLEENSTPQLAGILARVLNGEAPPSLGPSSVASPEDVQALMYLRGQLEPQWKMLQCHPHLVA
Kind of test: Inhibition of HDAC10 (unknown origin) using (FAM)-labeled acetylated peptide as substrate measured after 17 hrs by fluorescence assay.

The target of test [2] is T2, Histone deacetylase 1 (Homo sapiens, UniProt Q13547). Kind of test: Inhibition of HDAC1 (unknown origin) using (FAM)-labeled acetylated peptide as substrate measured after 17 hrs by fluorescence assay.
Test [3] deals with T3, Protein deacetylase HDAC6 (Homo sapiens, UniProt Q9UBN7).
T3 sequence (Q9UBN7 whole entry): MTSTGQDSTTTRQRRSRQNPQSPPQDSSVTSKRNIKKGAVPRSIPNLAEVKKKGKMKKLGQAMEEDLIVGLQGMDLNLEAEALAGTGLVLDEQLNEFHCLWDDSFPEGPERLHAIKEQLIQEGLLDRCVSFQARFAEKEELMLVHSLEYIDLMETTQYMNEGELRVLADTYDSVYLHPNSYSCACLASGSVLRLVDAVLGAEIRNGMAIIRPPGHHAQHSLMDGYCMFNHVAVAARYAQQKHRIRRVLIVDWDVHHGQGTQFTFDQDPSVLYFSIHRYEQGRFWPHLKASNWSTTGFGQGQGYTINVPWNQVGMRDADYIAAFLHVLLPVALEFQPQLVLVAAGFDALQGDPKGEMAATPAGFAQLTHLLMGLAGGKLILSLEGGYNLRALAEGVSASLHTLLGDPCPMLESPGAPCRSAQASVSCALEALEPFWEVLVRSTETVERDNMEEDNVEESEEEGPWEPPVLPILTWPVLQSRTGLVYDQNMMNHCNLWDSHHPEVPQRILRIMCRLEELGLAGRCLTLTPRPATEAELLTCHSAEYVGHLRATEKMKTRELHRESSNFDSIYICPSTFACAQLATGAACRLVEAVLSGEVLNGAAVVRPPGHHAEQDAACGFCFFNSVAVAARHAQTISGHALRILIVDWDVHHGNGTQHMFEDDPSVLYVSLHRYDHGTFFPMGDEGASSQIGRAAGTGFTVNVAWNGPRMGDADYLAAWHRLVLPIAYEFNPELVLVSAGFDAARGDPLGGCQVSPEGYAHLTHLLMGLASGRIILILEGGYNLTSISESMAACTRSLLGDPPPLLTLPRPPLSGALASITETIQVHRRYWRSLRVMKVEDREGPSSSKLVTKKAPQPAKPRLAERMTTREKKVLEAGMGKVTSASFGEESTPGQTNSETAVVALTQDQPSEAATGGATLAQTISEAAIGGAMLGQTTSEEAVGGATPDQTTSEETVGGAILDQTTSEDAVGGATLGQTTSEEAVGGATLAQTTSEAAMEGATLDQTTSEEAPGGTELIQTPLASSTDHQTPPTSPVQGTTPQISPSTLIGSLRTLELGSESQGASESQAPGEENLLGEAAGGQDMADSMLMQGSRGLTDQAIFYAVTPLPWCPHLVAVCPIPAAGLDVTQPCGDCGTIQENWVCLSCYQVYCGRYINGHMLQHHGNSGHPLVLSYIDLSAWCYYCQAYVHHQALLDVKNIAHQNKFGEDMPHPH
Kind of test: Inhibition of HDAC6 (unknown origin) using (FAM)-labeled acetylated peptide as substrate measured after 17 hrs by fluorescence assay.

In test [4] the target is Histone deacetylase 2 (Homo sapiens, UniProt Q92769).
In test [5] the target is T4, Histone deacetylase 8 (Homo sapiens, UniProt Q9BY41).
T4 sequence (Q9BY41 whole entry): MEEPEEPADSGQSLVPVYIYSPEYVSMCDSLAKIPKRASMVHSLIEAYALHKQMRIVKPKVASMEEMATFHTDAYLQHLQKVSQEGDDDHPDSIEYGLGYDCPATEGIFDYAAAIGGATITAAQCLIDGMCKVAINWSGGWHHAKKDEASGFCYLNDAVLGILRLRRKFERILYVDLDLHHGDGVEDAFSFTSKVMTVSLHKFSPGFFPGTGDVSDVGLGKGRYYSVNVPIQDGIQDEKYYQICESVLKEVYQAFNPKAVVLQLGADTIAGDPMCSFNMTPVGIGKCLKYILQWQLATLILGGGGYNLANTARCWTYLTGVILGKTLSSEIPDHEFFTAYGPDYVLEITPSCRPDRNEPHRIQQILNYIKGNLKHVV
Kind of test: Inhibition of HDAC8 (unknown origin) using (FAM)-labeled acetylated peptide as substrate measured after 17 hrs by fluorescence assay.

Test [6] deals with T4, Histone deacetylase 8. Put plainly: Inhibition of human HDAC8 using fluorogenic HDAC substrate.
The target in test [7] is T5, Histone deacetylase 11 (Homo sapiens, UniProt Q96DB2).
T5 sequence (Q96DB2 whole entry): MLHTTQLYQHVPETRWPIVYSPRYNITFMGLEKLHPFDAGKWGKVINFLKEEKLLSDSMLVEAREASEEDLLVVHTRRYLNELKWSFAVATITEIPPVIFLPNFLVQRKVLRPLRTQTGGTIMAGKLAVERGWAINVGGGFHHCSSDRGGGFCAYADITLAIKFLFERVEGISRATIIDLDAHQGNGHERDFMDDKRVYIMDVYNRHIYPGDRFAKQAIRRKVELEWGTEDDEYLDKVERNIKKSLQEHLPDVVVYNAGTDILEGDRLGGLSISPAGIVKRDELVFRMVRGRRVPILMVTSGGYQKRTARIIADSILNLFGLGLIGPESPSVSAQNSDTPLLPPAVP
Put plainly: Inhibition of human HDAC11 using fluorogenic HDAC substrate.

In test [8] the target is Histone deacetylase 5 (Homo sapiens, UniProt Q9UQL6). Kind of test: Inhibition of human HDAC5 using fluorogenic HDAC substrate.
Test [9] has as its target T1, Polyamine deacetylase HDAC10. Put plainly: Inhibition of human HDAC10 using fluorogenic HDAC substrate.
Test [10] has as its target T2, Histone deacetylase 1. Kind of test: Inhibition of human HDAC1 using fluorogenic HDAC substrate.
Test [11] concerns the target Histone deacetylase 9 (Homo sapiens, UniProt Q9UKV0). Put plainly: Inhibition of human HDAC9 using fluorogenic HDAC substrate.
Test [12] concerns the target T3, Protein deacetylase HDAC6. Kind of test: Inhibition of human HDAC6 using fluorogenic HDAC substrate.
The target in test [13] is Histone deacetylase 4 (Homo sapiens, UniProt P56524). Kind of test: Inhibition of human HDAC4 using fluorogenic HDAC substrate.
Test [14] has as its target T6, Histone deacetylase 7 (Homo sapiens, UniProt Q8WUI4).
T6 sequence (Q8WUI4 whole entry): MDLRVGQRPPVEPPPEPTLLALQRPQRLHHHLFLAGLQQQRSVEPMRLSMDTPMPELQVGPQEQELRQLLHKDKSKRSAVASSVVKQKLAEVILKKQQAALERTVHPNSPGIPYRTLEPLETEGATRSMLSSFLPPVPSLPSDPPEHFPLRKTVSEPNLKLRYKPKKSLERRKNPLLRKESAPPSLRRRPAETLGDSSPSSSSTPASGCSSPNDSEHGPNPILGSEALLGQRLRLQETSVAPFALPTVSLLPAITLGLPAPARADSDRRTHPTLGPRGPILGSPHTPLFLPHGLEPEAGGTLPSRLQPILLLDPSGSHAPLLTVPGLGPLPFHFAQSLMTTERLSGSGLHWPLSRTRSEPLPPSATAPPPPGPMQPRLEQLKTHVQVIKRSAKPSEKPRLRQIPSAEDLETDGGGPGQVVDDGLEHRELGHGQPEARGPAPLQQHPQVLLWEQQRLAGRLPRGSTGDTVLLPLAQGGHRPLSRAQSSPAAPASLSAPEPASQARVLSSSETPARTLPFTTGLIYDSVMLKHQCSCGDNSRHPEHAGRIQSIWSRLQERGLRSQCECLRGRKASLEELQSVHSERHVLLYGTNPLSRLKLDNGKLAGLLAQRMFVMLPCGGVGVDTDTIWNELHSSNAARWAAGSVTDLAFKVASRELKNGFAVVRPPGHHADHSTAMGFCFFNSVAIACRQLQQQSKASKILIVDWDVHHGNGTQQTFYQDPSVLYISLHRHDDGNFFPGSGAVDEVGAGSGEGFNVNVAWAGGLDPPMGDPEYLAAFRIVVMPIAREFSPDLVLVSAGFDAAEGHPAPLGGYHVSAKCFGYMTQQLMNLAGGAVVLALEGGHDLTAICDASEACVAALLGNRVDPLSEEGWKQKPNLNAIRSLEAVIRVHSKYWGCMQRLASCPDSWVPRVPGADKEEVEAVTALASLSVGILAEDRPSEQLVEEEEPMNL
Kind of test: Inhibition of human HDAC7 using fluorogenic HDAC substrate.

Test [15] concerns the target Histone deacetylase 3/Nuclear receptor corepressor 2 (HDAC3/NCoR2) (Homo sapiens) (UniProt O15379+Q9Y618). Put plainly: Inhibition of human recombinant full length C-terminal His-tagged HDAC3 (1 to 428 residues)/N-terminal GST-tagged NCOR2 (395 to 489 residues) expressed in insect cells using Boc-l-Lys(Ac)-AMC as substrate preincubated up to 3 hrs and measured after 35 mins by fluorescence assay.

The target of test [16] is T2, Histone deacetylase 1. Kind of test: Inhibition of recombinant human FLAG/His-tagged HDAC1 expressed in baculovirus expression system using Boc-l-Lys(Ac)-AMC as substrate preincubated up to 3 hrs and measured after 35 mins by fluorescence assay.
The test system of test [17] is MKN-45. Kind of test: cells. Conditions: Homo sapiens.
The subject of test [18] is A549. Kind of test: cells. Conditions: Homo sapiens.
Test [19] has as its system MCF7. Put plainly: cells. Conditions: Homo sapiens.
The subject of test [20] is PC-3. Put plainly: cells. In kind it is functional, cell-based. Conditions: Homo sapiens.
Test [21] concerns MDA-MB-231. Kind of test: cells. Conditions: Homo sapiens.
The subject of test [22] is RWPE-1. Kind of test: cells. Conditions: Homo sapiens. The test is classed as ADME, cell-based.
Test [23] has as its system MCF7. Kind of test: cells. In kind it is functional, cell-based. Conditions: Homo sapiens.
Test [24] concerns Vero. Kind of test: cells. In kind it is ADME, cell-based. Conditions: Chlorocebus sabaeus.

These results are taken from ChEMBL document CHEMBL4422610, “HDAC as onco target: Reviewing the synthetic approaches with SAR study of their inhibitors” (Eur J Med Chem, 2018).

As a reminder, the IC50 is the midpoint of a concentration-inhibition curve. Low values mean greater potency, high ones weaker potency. As a reminder, the inhibition is the percentage by which the read-out fell short of the control.

T2 sequence (Q13547 whole entry): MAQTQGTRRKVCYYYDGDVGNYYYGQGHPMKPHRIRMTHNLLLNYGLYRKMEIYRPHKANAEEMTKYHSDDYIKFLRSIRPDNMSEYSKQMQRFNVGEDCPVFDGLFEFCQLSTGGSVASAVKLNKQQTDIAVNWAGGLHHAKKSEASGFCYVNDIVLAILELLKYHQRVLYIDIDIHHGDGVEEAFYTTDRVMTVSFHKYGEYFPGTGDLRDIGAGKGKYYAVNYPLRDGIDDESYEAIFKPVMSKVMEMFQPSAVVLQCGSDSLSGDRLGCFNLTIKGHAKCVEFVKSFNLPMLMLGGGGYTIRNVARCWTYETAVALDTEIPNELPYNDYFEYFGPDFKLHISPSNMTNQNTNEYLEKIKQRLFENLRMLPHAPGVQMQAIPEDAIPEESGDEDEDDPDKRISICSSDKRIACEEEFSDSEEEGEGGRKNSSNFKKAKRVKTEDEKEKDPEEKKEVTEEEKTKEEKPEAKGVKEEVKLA
Histone deacetylase 9, sequence (Q9UKV0 whole entry): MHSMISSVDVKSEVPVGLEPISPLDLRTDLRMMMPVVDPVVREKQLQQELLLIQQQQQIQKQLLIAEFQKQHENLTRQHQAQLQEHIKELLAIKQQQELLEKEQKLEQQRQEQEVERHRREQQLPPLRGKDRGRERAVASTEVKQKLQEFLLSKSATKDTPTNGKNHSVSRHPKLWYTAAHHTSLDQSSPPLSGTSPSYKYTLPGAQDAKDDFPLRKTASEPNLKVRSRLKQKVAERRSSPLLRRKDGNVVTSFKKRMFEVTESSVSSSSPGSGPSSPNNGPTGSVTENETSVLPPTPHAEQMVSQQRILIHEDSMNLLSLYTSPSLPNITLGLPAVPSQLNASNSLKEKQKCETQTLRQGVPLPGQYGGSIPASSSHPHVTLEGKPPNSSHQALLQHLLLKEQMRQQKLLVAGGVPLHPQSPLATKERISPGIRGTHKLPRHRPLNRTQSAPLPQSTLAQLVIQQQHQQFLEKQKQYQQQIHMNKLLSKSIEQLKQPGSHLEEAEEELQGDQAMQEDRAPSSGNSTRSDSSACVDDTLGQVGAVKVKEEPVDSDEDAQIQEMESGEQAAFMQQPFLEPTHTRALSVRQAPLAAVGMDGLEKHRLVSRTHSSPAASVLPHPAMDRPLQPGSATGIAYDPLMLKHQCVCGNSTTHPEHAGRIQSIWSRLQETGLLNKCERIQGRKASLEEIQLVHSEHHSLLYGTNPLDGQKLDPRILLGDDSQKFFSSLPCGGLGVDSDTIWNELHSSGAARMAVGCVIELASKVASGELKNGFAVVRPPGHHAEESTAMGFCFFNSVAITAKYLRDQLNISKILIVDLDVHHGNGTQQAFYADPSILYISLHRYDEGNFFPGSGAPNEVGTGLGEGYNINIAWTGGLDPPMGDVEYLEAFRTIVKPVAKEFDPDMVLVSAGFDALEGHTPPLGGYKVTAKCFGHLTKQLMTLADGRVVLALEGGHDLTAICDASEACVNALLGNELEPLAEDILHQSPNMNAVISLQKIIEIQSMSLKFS
Histone deacetylase 4, sequence (P56524 whole entry): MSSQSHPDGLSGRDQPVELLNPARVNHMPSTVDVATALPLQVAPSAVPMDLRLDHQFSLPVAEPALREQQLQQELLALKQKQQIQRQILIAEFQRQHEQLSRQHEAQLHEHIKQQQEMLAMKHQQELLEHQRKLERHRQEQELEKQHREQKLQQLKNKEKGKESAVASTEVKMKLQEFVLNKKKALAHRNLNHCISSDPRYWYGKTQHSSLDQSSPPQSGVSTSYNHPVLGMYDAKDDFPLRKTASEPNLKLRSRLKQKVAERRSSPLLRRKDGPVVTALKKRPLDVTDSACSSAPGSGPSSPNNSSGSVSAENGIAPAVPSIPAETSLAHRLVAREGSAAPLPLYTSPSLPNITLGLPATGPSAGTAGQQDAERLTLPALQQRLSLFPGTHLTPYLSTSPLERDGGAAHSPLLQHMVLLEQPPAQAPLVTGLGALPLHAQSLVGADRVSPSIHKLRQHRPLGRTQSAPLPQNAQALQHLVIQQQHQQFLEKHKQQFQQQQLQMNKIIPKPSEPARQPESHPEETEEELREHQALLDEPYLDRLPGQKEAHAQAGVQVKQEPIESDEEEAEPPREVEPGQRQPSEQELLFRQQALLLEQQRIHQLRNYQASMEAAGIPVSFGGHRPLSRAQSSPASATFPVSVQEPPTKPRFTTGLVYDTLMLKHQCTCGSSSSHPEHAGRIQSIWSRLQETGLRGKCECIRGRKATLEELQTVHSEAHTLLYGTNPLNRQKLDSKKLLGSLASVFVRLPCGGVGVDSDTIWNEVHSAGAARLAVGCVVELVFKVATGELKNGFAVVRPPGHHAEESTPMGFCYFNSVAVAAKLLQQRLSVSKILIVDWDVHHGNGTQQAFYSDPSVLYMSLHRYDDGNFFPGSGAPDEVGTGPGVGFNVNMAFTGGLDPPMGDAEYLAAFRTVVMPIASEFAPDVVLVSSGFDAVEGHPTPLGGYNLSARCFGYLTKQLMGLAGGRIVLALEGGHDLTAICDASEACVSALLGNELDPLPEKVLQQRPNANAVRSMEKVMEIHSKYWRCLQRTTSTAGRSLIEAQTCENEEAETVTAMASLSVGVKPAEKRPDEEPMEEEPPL
Histone deacetylase 5, sequence (Q9UQL6 whole entry): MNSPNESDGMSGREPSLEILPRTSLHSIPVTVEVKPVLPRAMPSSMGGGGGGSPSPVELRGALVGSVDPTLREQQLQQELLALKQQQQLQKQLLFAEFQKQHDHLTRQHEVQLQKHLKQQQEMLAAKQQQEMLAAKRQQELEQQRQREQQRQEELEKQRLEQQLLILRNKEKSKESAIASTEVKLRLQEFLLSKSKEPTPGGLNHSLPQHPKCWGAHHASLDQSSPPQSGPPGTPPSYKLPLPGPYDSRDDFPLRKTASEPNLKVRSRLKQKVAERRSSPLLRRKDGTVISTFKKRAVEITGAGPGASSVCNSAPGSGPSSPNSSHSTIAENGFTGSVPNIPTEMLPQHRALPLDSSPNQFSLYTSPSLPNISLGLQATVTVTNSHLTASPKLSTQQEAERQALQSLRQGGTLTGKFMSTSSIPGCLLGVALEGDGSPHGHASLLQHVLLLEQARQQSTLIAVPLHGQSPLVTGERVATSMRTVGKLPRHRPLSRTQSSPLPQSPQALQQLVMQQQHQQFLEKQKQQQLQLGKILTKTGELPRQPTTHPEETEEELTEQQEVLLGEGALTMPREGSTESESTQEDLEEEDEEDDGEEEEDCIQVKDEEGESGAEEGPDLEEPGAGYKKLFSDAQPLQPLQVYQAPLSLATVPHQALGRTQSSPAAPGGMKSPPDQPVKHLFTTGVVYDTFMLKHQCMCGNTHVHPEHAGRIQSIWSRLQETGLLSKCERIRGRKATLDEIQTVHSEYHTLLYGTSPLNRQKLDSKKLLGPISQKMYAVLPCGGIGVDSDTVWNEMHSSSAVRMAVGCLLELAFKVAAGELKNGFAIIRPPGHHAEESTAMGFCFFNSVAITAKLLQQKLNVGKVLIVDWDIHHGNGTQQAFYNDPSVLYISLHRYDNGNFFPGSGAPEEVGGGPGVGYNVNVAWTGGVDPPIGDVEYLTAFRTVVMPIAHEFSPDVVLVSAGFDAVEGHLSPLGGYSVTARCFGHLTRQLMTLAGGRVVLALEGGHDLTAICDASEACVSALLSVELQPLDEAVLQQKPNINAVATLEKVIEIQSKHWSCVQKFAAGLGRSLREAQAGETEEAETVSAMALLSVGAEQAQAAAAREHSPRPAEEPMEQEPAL
Histone deacetylase 2, sequence (Q92769 whole entry): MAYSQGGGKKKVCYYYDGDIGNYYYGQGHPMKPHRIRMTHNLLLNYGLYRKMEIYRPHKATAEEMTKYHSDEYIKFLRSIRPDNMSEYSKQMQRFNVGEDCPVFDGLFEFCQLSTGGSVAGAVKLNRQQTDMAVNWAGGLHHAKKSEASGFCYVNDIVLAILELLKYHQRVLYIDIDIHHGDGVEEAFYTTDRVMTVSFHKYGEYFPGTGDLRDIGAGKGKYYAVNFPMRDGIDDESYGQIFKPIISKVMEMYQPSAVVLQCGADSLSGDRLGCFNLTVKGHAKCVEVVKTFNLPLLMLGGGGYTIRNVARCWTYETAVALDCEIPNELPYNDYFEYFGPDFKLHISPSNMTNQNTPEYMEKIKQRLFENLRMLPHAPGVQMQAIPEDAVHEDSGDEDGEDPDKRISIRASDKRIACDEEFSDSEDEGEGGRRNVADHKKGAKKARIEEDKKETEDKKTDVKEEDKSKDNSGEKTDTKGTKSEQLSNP

For `Nc1cccc(-c2csc(NC(=O)CCCCCCC(=O)Nc3ccccc3N)n2)c1`, the IC50 is 2.91 µM in [1]; 2.49 µM in test [2]; > 30 µM in test [3]; 0.147 µM in test [4]; > 30 µM in test [5].

Consider `O=C(NO)c1ccc(CN2c3ccccc3C[C@@H]3CCCC[C@H]32)cc1`, for which the IC50 was 5.3 µM in test [6]; 1.5 µM in [7]; 27 µM in [8]; > 30 µM in [9]; > 30 µM in [10]; 25 µM in test [11]. Further, the IC50 in test [12] is 0.036 µM; in test [13] it was > 30 µM; in [14], > 30 µM.

As to `O=C(Nc1cc(-c2ccccc2)ccc1O)c1c(-c2ccc(O)cc2)sc2cc(O)ccc12`, the inhibition in test [15] is < 12%; in [16] it was 21 to 34%.

On to `CCCCCCC[C@H](OC(=O)[C@@H](CCCCN(O)C=O)NC(=O)c1nc(-c2cc(OC)ccc2O)oc1C)C(C)(C)C(=O)N[C@H]1CCCCN(O)C1=O` [AMAMISTATIN A], for which the IC50 is 0.24 µM in test [17], 0.56 µM in test [18] and 0.48 µM in test [19].

Take `CC1(C)C(=O)N(c2ccc(C#N)c(C(F)(F)F)c2)C(=O)N1CCCCc1cn(CCCCCCC(=O)NO)nn1`: the IC50 was 15.7 µM in test [20]; > 20 µM in test [21]; 12.1 µM in test [22]; 14.6 µM in test [23]; > 20 µM in [24].
